From ChEMBL document CHEMBL3797052 (Eur J Med Chem, 2016)
pIC50: −log10 of the molar value.

Assays:
[1] = Antiproliferative activity against human SF268 cells assessed as cell growth at 10^-6 M after 48 hrs by sulforhodamine B assay; format: functional; settings: SF-268, 48 h, read-out: Activity
U-251 [2] = test: Antiproliferative activity against human U251 cells assessed as cell growth at 10^-7 M after 48 hrs by sulforhodamine B assay; format: functional; settings: U-251, 48 h, read-out: Activity
[3] = Antiproliferative activity against human Caki1 cells assessed as cell growth at 10^-6 M after 48 hrs by sulforhodamine B assay; format: functional; settings: CAKI-1, 48 h, read-out: Activity
CYP2C19 = CYP2C19 (Homo sapiens, UniProt P33261); test: Inhibition of recombinant human CYP2C19 assessed as remaining enzyme activity at 10 uM after 5 mins in presence of NADP by fluorescence plate reader analysis; format: ADME; settings: read-out: Activity
Chain of CYP2C19 (P33261 whole entry): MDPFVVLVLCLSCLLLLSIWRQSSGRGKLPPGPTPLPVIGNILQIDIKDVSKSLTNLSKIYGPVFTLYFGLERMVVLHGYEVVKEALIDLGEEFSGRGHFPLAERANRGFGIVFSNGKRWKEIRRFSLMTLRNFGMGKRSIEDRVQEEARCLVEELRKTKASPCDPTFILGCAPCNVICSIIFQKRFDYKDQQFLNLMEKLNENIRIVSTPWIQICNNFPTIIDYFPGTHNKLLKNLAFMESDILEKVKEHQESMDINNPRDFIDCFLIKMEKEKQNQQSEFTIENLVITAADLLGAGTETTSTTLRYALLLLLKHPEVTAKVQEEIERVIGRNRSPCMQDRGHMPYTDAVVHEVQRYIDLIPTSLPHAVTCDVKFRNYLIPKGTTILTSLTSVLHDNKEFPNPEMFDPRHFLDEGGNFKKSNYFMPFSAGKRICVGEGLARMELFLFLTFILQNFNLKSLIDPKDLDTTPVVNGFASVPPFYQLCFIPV

[4] = Antiproliferative activity against human BT549 cells assessed as cell growth at 10^-4 M after 48 hrs by sulforhodamine B assay; format: functional; settings: BT-549, 48 h, read-out: Activity
[5] = Antiproliferative activity against human OVCAR3 cells assessed as cell growth at 10^-7 M after 48 hrs by sulforhodamine B assay; format: functional; settings: OVCAR-3, 48 h, read-out: Activity
NCI-H226 = test: Antiproliferative activity against human NCI-H226 cells assessed as cell growth at 10^-8 M after 48 hrs by sulforhodamine B assay; format: functional; settings: NCI-H226, 48 h, read-out: Activity
[6] = Antiproliferative activity against human SNB75 cells assessed as growth inhibition after 48 hrs by sulforhodamine B assay; format: functional; settings: SNB-75, 48 h; for CC50: read-out: LC50 (the source's name)
[7] = Antiproliferative activity against human DU145 cells assessed as cell growth at 10^-6 M after 48 hrs by sulforhodamine B assay; format: functional; settings: DU-145, 48 h, read-out: Activity
[8] = Antiproliferative activity against human HCT15 cells assessed as cell growth at 10^-4 M after 48 hrs by sulforhodamine B assay; format: functional; settings: HCT-15, 48 h, read-out: Activity
[9] = Antiproliferative activity against human SF539 cells assessed as cell growth at 10^-7 M after 48 hrs by sulforhodamine B assay; format: functional; settings: SF-539, 48 h, read-out: Activity
[10] = Antiproliferative activity against human Hs 578T cells assessed as cell growth at 10^-8 M after 48 hrs by sulforhodamine B assay; format: functional; settings: read-out: Activity
[11] = Antiproliferative activity against human SKOV3 cells assessed as cell growth at 10^-8 M after 48 hrs by sulforhodamine B assay; format: functional; settings: SK-OV-3, 48 h, read-out: Activity
NCI-H322M = test: Antiproliferative activity against human NCI-H322M cells assessed as cell growth at 10^-8 M after 48 hrs by sulforhodamine B assay; format: functional; settings: read-out: Activity
EKVX = test: Antiproliferative activity against human EKVX cells assessed as cell growth at 10^-4 M after 48 hrs by sulforhodamine B assay; format: functional; settings: read-out: Activity
[12] = Antiproliferative activity against human UACC62 cells assessed as cell growth at 10^-4 M after 48 hrs by sulforhodamine B assay; format: functional; settings: UACC-62, 48 h, read-out: Activity
NCI-H522 [13] = test: Antiproliferative activity against human NCI-H522 cells assessed as cell growth at 10^-4 M after 48 hrs by sulforhodamine B assay; format: functional; settings: NCI-H522, 48 h, read-out: Activity
[14] = Antiproliferative activity against human HCT116 cells assessed as cell growth at 10^-6 M after 48 hrs by sulforhodamine B assay; format: functional; settings: HCT-116, 48 h, read-out: Activity
[15] = Antiproliferative activity against human SKOV3 cells assessed as cell growth at 10^-7 M after 48 hrs by sulforhodamine B assay; format: functional; settings: SK-OV-3, 48 h, read-out: Activity
[16] = Antiproliferative activity against human HL-60(TB) cells assessed as cell growth at 10^-6 M after 48 hrs by sulforhodamine B assay; format: functional; settings: HL-60, 48 h, read-out: Activity
Malme-3M = test: Antiproliferative activity against human MALME-3M cells assessed as cell growth at 10^-7 M after 48 hrs by sulforhodamine B assay; format: functional; settings: read-out: Activity
[17] = Antiproliferative activity against human SNB75 cells assessed as cell growth at 10^-7 M after 48 hrs by sulforhodamine B assay; format: functional; settings: SNB-75, 48 h, read-out: Activity
SR [18] = test: Antiproliferative activity against human SR cells assessed as cell growth at 10^-6 M after 48 hrs by sulforhodamine B assay; format: functional; settings: read-out: Activity
[19] = biological target: Voltage-gated inwardly rectifying potassium channel KCNH2 (Homo sapiens, UniProt Q12809); test: Inhibition of human ERG assessed as reduction in channel current by automated patch-clamp electrophysiology assay
Chain of Voltage-gated inwardly rectifying potassium channel KCNH2 (Q12809 whole entry): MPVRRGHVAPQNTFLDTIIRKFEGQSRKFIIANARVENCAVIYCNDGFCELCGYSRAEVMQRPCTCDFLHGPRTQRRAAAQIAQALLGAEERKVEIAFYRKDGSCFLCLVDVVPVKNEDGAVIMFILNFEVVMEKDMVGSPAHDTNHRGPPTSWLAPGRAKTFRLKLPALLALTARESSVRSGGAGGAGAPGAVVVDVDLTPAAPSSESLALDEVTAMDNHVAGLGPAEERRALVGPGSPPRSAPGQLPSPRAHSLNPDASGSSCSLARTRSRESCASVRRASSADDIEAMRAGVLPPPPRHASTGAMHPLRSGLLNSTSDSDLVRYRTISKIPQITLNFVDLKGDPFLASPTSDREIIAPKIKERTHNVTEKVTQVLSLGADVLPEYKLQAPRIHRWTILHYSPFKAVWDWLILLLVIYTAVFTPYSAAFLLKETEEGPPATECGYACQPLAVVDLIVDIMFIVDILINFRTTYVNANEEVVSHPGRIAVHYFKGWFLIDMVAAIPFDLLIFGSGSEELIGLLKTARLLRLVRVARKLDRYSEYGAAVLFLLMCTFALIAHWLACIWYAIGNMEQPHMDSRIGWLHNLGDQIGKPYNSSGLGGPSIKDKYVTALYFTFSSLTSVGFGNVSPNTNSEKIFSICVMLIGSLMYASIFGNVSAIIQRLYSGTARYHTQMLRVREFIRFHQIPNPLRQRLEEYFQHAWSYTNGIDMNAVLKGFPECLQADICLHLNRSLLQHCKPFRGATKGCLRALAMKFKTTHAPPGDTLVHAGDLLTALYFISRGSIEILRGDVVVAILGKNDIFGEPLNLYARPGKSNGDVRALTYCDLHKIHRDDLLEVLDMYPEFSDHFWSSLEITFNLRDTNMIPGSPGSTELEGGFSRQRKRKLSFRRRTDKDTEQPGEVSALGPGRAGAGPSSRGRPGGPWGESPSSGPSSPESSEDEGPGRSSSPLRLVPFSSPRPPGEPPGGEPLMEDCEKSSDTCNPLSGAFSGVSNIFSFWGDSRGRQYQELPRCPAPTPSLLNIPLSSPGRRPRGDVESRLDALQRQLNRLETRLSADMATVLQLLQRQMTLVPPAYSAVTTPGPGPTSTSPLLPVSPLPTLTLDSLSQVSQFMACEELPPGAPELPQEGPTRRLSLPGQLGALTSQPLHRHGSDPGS

A549 = test: Antiproliferative activity against human A549/ATCC cells assessed as cell growth at 10^-4 M after 48 hrs by sulforhodamine B assay; format: functional; settings: A549, 48 h, read-out: Activity
[20] = Antiproliferative activity against human COLO205 cells assessed as growth inhibition after 48 hrs by sulforhodamine B assay; format: functional; settings: COLO 205, 48 h; for CC50: read-out: LC50 (the source's name)
ACHN = test: Antiproliferative activity against human ACHN cells assessed as growth inhibition after 48 hrs by sulforhodamine B assay; format: functional
[21] = Antiproliferative activity against human SF295 cells assessed as growth inhibition after 48 hrs by sulforhodamine B assay; format: functional; settings: SF-295, 48 h; for CC50: read-out: LC50 (the source's name)
[22] = Antiproliferative activity against human RXF393 cells assessed as cell growth at 10^-6 M after 48 hrs by sulforhodamine B assay; format: functional; settings: RXF 393, 48 h, read-out: Activity
SR [23] = test: Antiproliferative activity against human SR cells assessed as cell growth at 10^-7 M after 48 hrs by sulforhodamine B assay; format: functional; settings: read-out: Activity
U-251 [24] = test: Antiproliferative activity against human U251 cells assessed as growth inhibition after 48 hrs by sulforhodamine B assay; format: functional; settings: U-251, 48 h
KM12 = test: Antiproliferative activity against human KM12 cells assessed as cell growth at 10^-6 M after 48 hrs by sulforhodamine B assay; format: functional; settings: KM12, 48 h, read-out: Activity
NCI-H522 [25] = test: Antiproliferative activity against human NCI-H522 cells assessed as cell growth at 10^-7 M after 48 hrs by sulforhodamine B assay; format: functional; settings: NCI-H522, 48 h, read-out: Activity
[26] = Antiproliferative activity against human SF268 cells assessed as cell growth at 10^-4 M after 48 hrs by sulforhodamine B assay; format: functional; settings: SF-268, 48 h, read-out: Activity
HT-29 = test: Antiproliferative activity against human HT-29 cells assessed as cell growth at 10^-8 M after 48 hrs by sulforhodamine B assay; format: functional; settings: HT-29, 48 h, read-out: Activity
SK-MEL-2 = test: Antiproliferative activity against human SK-MEL-2 cells assessed as cell growth at 10^-6 M after 48 hrs by sulforhodamine B assay; format: functional; settings: SK-MEL-2, 48 h, read-out: Activity
[27] = Antiproliferative activity against human HOP92 cells assessed as cell growth at 10^-8 M after 48 hrs by sulforhodamine B assay; format: functional; settings: HOP-92, 48 h, read-out: Activity

CNC(=O)c1cc(Oc2ccc3nc(NC(=O)Nc4ccc(Cl)c(C(F)(F)F)c4)sc3c2)ccn1
growth at 1 µM [1]: 78%
growth at 0.1 µM (U-251 [2]): 101%
growth at 1 µM [3]: 95%
activity at 5 min, 10 µM (CYP2C19): 79.9%
growth at 100 µM [4]: -6%
growth at 0.1 µM [5]: 111%
growth at 0.01 µM (NCI-H226): 93%
GI50 [6]: 1.52 µM
TGI [6]: 3.24 µM
CC50 [6]: 6.88 µM
growth at 1 µM [7]: 82%
growth at 100 µM [8]: 23%
growth at 0.1 µM [9]: 97%
growth at 0.01 µM [10]: 92%
growth at 0.01 µM [11]: 97%
growth at 0.01 µM (NCI-H322M): 101%
growth at 100 µM (EKVX): -32%
growth at 100 µM [12]: 26%
growth at 100 µM (NCI-H522 [13]): 23%
growth at 1 µM [14]: 80%
growth at 0.1 µM [15]: 103%
growth at 1 µM [16]: 96%
growth at 0.1 µM (Malme-3M): 98%
growth at 0.1 µM [17]: 81%
growth at 1 µM (SR [18]): 15%
pIC50 [19]: < 4.00
growth at 100 µM (A549): 9%
CC50 [20]: > 100 µM
GI50 (ACHN): 1.85 µM
LC50 (ACHN): 7.82 µM
TGI (ACHN): 3.8 µM
GI50 [21]: 1.79 µM
TGI [21]: 3.71 µM
CC50 [21]: 7.66 µM
growth at 1 µM [22]: 88%
growth at 0.1 µM (SR [23]): 105%
GI50 (U-251 [24]): 1.79 µM
TGI (U-251 [24]): 3.75 µM
growth at 1 µM (KM12): 85%
growth at 0.1 µM (NCI-H522 [25]): 95%
growth at 100 µM [26]: -5%
growth at 0.01 µM (HT-29): 99%
growth at 1 µM (SK-MEL-2): 89%
growth at 0.01 µM [27]: 85%

CNC(=O)c1cc(Oc2ccc(NC(=O)Nc3ccc(Cl)c(C(F)(F)F)c3)cc2)ccn1 [SORAFENIB]
GI50 [6]: 3.16 µM
TGI [6]: 10 µM
CC50 [6]: 39.8 µM
GI50 [20]: 2 µM
TGI [20]: 7.94 µM
CC50 [20]: 31.6 µM
GI50 (ACHN): 2.51 µM
TGI (ACHN): 12.6 µM
TGI [21]: 5.01 µM
CC50 [21]: 31.6 µM
GI50 (U-251 [24]): 2 µM
TGI (U-251 [24]): 6.31 µM
